Measured values taken from the supplement of paper PMC10290057.
Structures can show the parent of a compound that is named as a salt.

Key:
HCT116 [1] = test: AC50 cell viability (CellTiter-Glo); higher = less potent; conditions: 48 h
HCT116 [2] = test: efficacy (fitted maximal change in viability relative to DMSO control); higher = less cytotoxic (negative = loss of viability); conditions: 48 h
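Throughout, for AC50 cell viability (CellTiter-Glo): HCT116 colorectal carcinoma cells screened at five concentrations per compound, luminescent viability scaled between DMSO wells and empty wells on each plate, curves fitted per compound.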
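Throughout, for efficacy (fitted maximal change in viability relative to DMSO control): Luminescence-based viability readout, five doses per compound, normalized against on-plate DMSO and empty-well controls, followed by dose-response curve fitting for every drug.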

Row | SMILES | AC50 cell viability (HCT116 [1]) | efficacy (HCT116 [2])
1 | COc1ccc(C(=O)CC2(O)C(=O)Nc3c(Cl)ccc(Cl)c32)cc1 (stereo unspecified) [YK-4-279] | 1.18 µM | -57.1%
2 | COc1ccc(N2C(=O)N(c3c(C)cccc3Cl)Cc3cnc(Nc4ccc(C5CCN(C)CC5)cc4OC)nc32)nc1 [YKL-05-099] | 10.5 µM | -99.4%
3 | CN(C)c1ccc2cc(C(=O)N[C@@H](CCCNC(=N)CCl)C(=O)NCc3ccccc3)ccc2c1 [YW3-56] | 20.9 µM | -56.2%
4 | FC(F)c1nc2ccccc2n1-c1nc(N2CCOCC2)nc(N2CCOCC2)n1 [ZSTK-474] | 0.742 µM | -58.2%
5 | CC1(CN2CCC(n3c(=O)[nH]c4ccccc43)CC2)OCc2ccccc2-n2cccc21 (stereo unspecified) [Zaldaride maleate] | 20.9 µM | -74.1%
6 | Cl.Cl.Cl.O[C@@H](COc1cccc2ncccc12)CN1CCN([C@@H]2c3ccccc3[C@@H]3[C@H](c4ccccc42)C3(F)F)CC1 [Zosuquidar trihydrochloride] | 16.6 µM | -97%
7 | CC1(C)CC\C2=C(/O1)C3=C(C=CC=C3)C(=O)C2=O [beta-Lapachone] | 14.8 µM | -103%
8 | CC1CCN(c2cc(N3CCN(C)CC3)ccc2NC(=O)c2cc(C#N)c[nH]2)CC1 [c-FMS Inhibitor] | 7.42 µM | -34%
